# Data from US8455544B2, “Synthetic triterpenoids and methods of use in the treatment of disease” (Reata Pharmaecuticals, Inc., priority 2008, dated 2013).
# How the values were obtained:
# [1] = tested on: ischemia-reperfusion induced renal damage; experiment: Mouse model of ischemic acute renal failure (ischemia-reperfusion); format: in vivo
# Protocol: FIGS. 1a-d—RTA 402 reduces renal damage following ischemia-reperfusion. Mice were administered RTA 402 at 2 mg/kg or simply the vehicle (sesame oil) daily by oral gavage beginning on […]. On Day 0, a clamp was placed on the left renal artery for 17 minutes and then removed to induce ischemia-reperfusion. (FIG. 1a) On Day 1, blood was collected from animals that were subjected to clamping and “sham” control animals that underwent surgery without clamping of the renal artery. Blood urea nitrogen (BUN) levels were measured as a surrogate for renal damage. (FIGS. 1b-d) Sections of kidneys from RTA 402-treated or vehicle-treated mice were scored for histological damage (FIGS. 1b & 1d) and inflammation (FIG. 1c). (FIG. 1d) Black arrows (vehicle group) show two of many severely damaged tubules in the outer medulla. Red arrows (RTA 402 group) show two of many undamaged tubules in the outer medulla.
# In a mouse model of ischemic acute renal failure, the renal artery is clamped for approximately twenty minutes. After this time, the clamp is removed and the kidney is reperfused with blood. Ischemia-reperfusion results in renal damage and decreased renal function which can be assessed by blood urea nitrogen (BUN) levels, which become elevated following renal damage. As shown in FIGS. 1a-d, surgically-induced ischemia-reperfusion increased BUN levels by approximately 2-fold.
# [2] = Serum creatinine in toxicology studies, rats; format: in vivo, Sprague-Dawley rats; details: oral, once daily, one month (crystalline) or three months (amorphous form)
# Protocol: FIGS. 3a-d—RTA 402 reduces serum creatinine levels in monkeys, dogs, and rats. (FIG. 3a) Cynomolgus monkeys were administered RTA 402 orally at the indicated doses once daily for 28 days. The percent reduction of serum creatinine on Day 28 in RTA 402-treated monkeys relative to vehicle-treated control monkeys is shown. (FIG. 3b) RTA 402 was administered orally to beagle dogs at the indicated doses daily for three months. Control animals received vehicle (sesame oil). The percent change in serum creatinine at the three-month time point relative to baseline is shown. (FIG. 3c) Sprague-Dawley rats were administered RTA 402 orally at the indicated doses once daily for a period of one month. The percent reduction of serum creatinine at study completion in RTA 402-treated rats relative to vehicle-treated control rats is shown. (FIG. 3d) Sprague-Dawley rats were administered the amorphous form of RTA 402 orally at the indicated doses once daily for a period of three months. The percent reduction of serum creatinine at study completion in RTA 402-treated rats relative to vehicle-treated control rats is shown. […] For example, a reading of −15 on this axis indicates a 15% reduction in serum creatinine.
# Serum creatinine has been measured in several animal species treated with RTA 402 in the course of toxicology studies. […]
smiles,measurement,setting,value
"COC(=O)[C@]12CCC(C)(C)C[C@H]1[C@H]1C(=O)C=C3[C@@]4(C)C=C(C#N)C(=O)C(C)(C)[C@@H]4CC[C@@]3(C)[C@]1(C)CC2 [RTA 402, methyl-2-cyano-3,12-dioxooleana-1,9-dien-28-oic acid]",Histological measures of kidney damage and inflammation,[1]; 2 mg/kg orally once daily,significantly improved
same,BUN levels relative to vehicle-treated animals,"[1]; 2 mg/kg orally once daily beginning two days prior to surgery, p<0.01",significantly reduced
same,Serum creatinine levels relative to control animals,[2],Significant reductions
